This is an account of results in patent US20240261351A1, “COMPOSITIONS AND METHODS FOR THE TREATMENT OF BONE AND JOINT DISEASES” (priority 2021, published 2024).

“And” between values parts separate entries of the source, which are not always exact repeats. Equal entries are not always repeated.

Series [1] can be described thus: Strontium blood levels by Inductively Coupled Plasma Mass Spectrometry. The conditions noted are these: for maximum strontium blood level: 10-15 g strontium salt daily split morning and evening plus 50 g Aquamin daily as top dressing for 14 days, blood drawn in the morning before feeding, individual horses. How it is done:
Approximately 4 months into the trial, strontium blood levels were measured in a small group of horses. […] (Li et al., 2009). To measure strontium blood levels, Inductively Coupled Plasma Mass Spectrometry was used (Eurofins Lab, (Wisconsin USA)).
A group of six horses were utilized and were administered the subject compositions for 14 days total. The compositions were added to morning and evening feed as a top dressing. All subjects received 50 g of “Aquamin” daily given as 25 g in morning and 25 g in evening. Three horses received Strontium ranelate at 10 g, 12 g, and 15 g daily split between the morning and evening. Three horses received Strontium citrate at 10 g, 12 g, and 14 g daily split morning and evening. Blood samples were taken a day 0, 1, 5, 8, 12, and 15 days. Bloods were drawn first thing in the morning before any supplements were fed.

For series [2] the following is noted: human, receiving 2 grams per day (AusProtos, 2013); cited from earlier work.

As to strontium citrate, the “maximum strontium blood level” value in series [1] is 9.3 µmol/L and 9.5 µmol/L. For the same molecule, in series [1] (six-horse 14 day study with 50 g Aquamin daily), the “strontium blood levels compared with strontium ranelate” value is “comparable”.
With `N#Cc1c(N(CC(=O)[O-])CC(=O)[O-])sc(C(=O)[O-])c1CC(=O)[O-].[Sr+2].[Sr+2]` [strontium ranelate, reference compound], the “maximum strontium blood level” value in series [1] was “about 7.5 μmole/L”. In series [2], the strontium blood levels was 140 to 150 µmol/L.
